Measurements from patent US20070015770A1 (priority 2003, published 2007).
Read-outs that look alike come from different tables or passages of the source.

Test system: Pyricularia oryzae
Assay type: in vivo
Details: individual active compound, rice seedlings Tai-Nong 67, protective spray, evaluated 6 days after inoculation

SMILES: CC1CCN(c2c(-c3c(F)cc(F)cc3F)c(Cl)nc3ncnn23)CC1 [I, 5-chloro-7-(4-methylpiperidin-1-yl)-6-(2,4,6-trifluorophenyl)-[1,2,4]triazolo[1,5-a]pyrimidine]
- Efficacy in % of the untreated control (1 ppm in the spray liquor): 16%
- Efficacy in % of the untreated control (4 ppm in the spray liquor): 28%

SMILES: COCC(=O)N(c1c(C)cccc1C)[C@H](C)C(=O)OC [II (metalaxyl-M), methyl N-(methoxyacetyl)-N-(2,6-xylyl)-D-alaninate]
- Efficacy in % of the untreated control (4 ppm in the spray liquor): 0%

SMILES: CC1CCN(c2c(-c3c(F)cccc3Cl)c(Cl)nc3ncnn23)CC1 [comparative compound A]
- Efficacy in % of the untreated control (1 ppm in the spray liquor): 0%
- Efficacy in % of the untreated control (4 ppm in the spray liquor): 4%

SMILES: C[C@H](Nc1c(-c2c(F)cc(F)cc2F)c(Cl)nc2ncnn12)C(F)(F)F [comparative compound B]
- Efficacy in % of the untreated control (1 ppm in the spray liquor): 4%
- Efficacy in % of the untreated control (4 ppm in the spray liquor): 40%
